Patent publication US10986834B2, “Peptide-containing composition and stabilizer, stabilizing method, and storage method for peptide” (KANEKA CORPORATION, priority 2016, dated 2021)

Conditions: 1% by mass in distilled water at 25° C.
Description: Potassium sulfate, dipotassium hydrogen phosphate, and potassium bicarbonate components were each dissolved in distilled water at 25° C. to be a concentration of 1% by mass and stirred sufficiently.

SMILES | pH
O=P([O-])([O-])O.[K+].[K+] [Dipotassium hydrogen phosphate] | 9.0
O=C([O-])O.[K+] [Potassium bicarbonate] | 8.3
O=S(=O)([O-])[O-].[K+].[K+] [Potassium sulfate] | 3.3
